Experimental data published in PubChem BioAssay (NCI).
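Five concentrations, 48 hours, 96-well plates. Abbreviation: GI50, concentration required for 50% inhibition of growth. The concentration for full growth arrest is given as TGI.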

Tests used:
Experiment in all cases: NCI tumour cell line growth inhibition, 48 h
786-0 renal = system: 786-0 renal
A498 renal = system: A498 renal
A549 NSCLC = system: A549 NSCLC
ACHN renal = system: ACHN renal
BT-549 breast = system: BT-549 breast
CAKI-1 renal = system: CAKI-1 renal
CCRF-CEM leukemia = system: CCRF-CEM leukemia
COLO 205 colon = system: COLO 205 colon
DU-145 prostate = system: DU-145 prostate
EKVX NSCLC = system: EKVX NSCLC
HCC-2998 colon = system: HCC-2998 colon
HCT-116 colon = system: HCT-116 colon
HCT-15 colon = system: HCT-15 colon
HL-60(TB) leukemia = system: HL-60(TB) leukemia
HOP-62 NSCLC = system: HOP-62 NSCLC
HOP-92 NSCLC = system: HOP-92 NSCLC
HS 578T breast = system: HS 578T breast
HT29 colon = system: HT29 colon
IGROV1 ovarian = system: IGROV1 ovarian
K-562 leukemia = system: K-562 leukemia
KM12 colon = system: KM12 colon
LOX IMVI melanoma = system: LOX IMVI melanoma
M14 melanoma = system: M14 melanoma
MALME-3M melanoma = system: MALME-3M melanoma
MCF7 breast = system: MCF7 breast
MDA-MB-231 breast = system: MDA-MB-231 breast
MDA-MB-435 = system: MDA-MB-435
MDA-MB-468 breast = system: MDA-MB-468 breast
MOLT-4 leukemia = system: MOLT-4 leukemia
NCI-H226 lung = system: NCI-H226 lung
NCI-H23 lung = system: NCI-H23 lung
NCI-H460 lung = system: NCI-H460 lung
NCI-H522 lung = system: NCI-H522 lung
NCI/ADR-RES ovarian = system: NCI/ADR-RES ovarian
OVCAR-3 ovarian = system: OVCAR-3 ovarian
OVCAR-4 ovarian = system: OVCAR-4 ovarian
OVCAR-5 ovarian = system: OVCAR-5 ovarian
OVCAR-8 ovarian = system: OVCAR-8 ovarian
PC-3 prostate = system: PC-3 prostate
RPMI-8226 leukemia = system: RPMI-8226 leukemia
RXF 393 renal = system: RXF 393 renal
SF-268 CNS = system: SF-268 CNS
SF-295 CNS = system: SF-295 CNS
SF-539 CNS = system: SF-539 CNS
SK-MEL-2 melanoma = system: SK-MEL-2 melanoma
SK-MEL-28 melanoma = system: SK-MEL-28 melanoma
SK-MEL-5 melanoma = system: SK-MEL-5 melanoma
SK-OV-3 ovarian = system: SK-OV-3 ovarian
SN12C renal = system: SN12C renal
SNB-19 CNS = system: SNB-19 CNS
SNB-75 CNS = system: SNB-75 CNS
SR leukemia = system: SR leukemia
SW-620 colon = system: SW-620 colon
T-47D breast = system: T-47D breast
TK-10 renal = system: TK-10 renal
U251 CNS = system: U251 CNS
UACC-257 melanoma = system: UACC-257 melanoma
UACC-62 melanoma = system: UACC-62 melanoma
UO-31 renal = system: UO-31 renal

CCN1C(=O)N(CC)C2NNC(Sc3c(C(=O)O)c4ccccc4n(CC(C)C)c3=O)=NC21 (stereo not drawn)
GI50 (786-0 renal): 7.45 µM | TGI (786-0 renal): > 100 µM | GI50 (A498 renal): > 100 µM | TGI (A498 renal): > 100 µM | GI50 (A549 NSCLC): 4.6 µM | TGI (A549 NSCLC): > 100 µM | GI50 (ACHN renal): 4.73 µM | TGI (ACHN renal): 46.2 µM | GI50 (BT-549 breast): 35.7 µM | TGI (BT-549 breast): > 100 µM | GI50 (CAKI-1 renal): 3.1 µM | TGI (CAKI-1 renal): 23.2 µM | GI50 (CCRF-CEM leukemia): 3.54 µM | TGI (CCRF-CEM leukemia): > 100 µM | GI50 (COLO 205 colon): 2.53 µM | TGI (COLO 205 colon): 6.95 µM | GI50 (DU-145 prostate): 4.49 µM | TGI (DU-145 prostate): > 100 µM | GI50 (EKVX NSCLC): 3.11 µM | TGI (EKVX NSCLC): > 100 µM | GI50 (HCC-2998 colon): 3.28 µM | TGI (HCC-2998 colon): 16.9 µM | GI50 (HCT-116 colon): 3.18 µM | TGI (HCT-116 colon): > 100 µM | GI50 (HCT-15 colon): 1.89 µM | TGI (HCT-15 colon): 18.8 µM | GI50 (HL-60(TB) leukemia): 2.37 µM | TGI (HL-60(TB) leukemia): 12.9 µM | GI50 (HOP-62 NSCLC): 5.42 µM | TGI (HOP-62 NSCLC): > 100 µM | GI50 (HOP-92 NSCLC): 14.4 µM | TGI (HOP-92 NSCLC): 64.1 µM | GI50 (HS 578T breast): 2.94 µM | TGI (HS 578T breast): 58.8 µM | GI50 (HT29 colon): 2.83 µM | TGI (HT29 colon): 12.5 µM | GI50 (IGROV1 ovarian): 2.54 µM | TGI (IGROV1 ovarian): 19.3 µM | GI50 (K-562 leukemia): 2.77 µM | TGI (K-562 leukemia): > 100 µM | GI50 (KM12 colon): 2.93 µM | TGI (KM12 colon): > 100 µM | GI50 (LOX IMVI melanoma): 4.13 µM | TGI (LOX IMVI melanoma): 20.6 µM | GI50 (M14 melanoma): 4 µM | TGI (M14 melanoma): > 100 µM | GI50 (MALME-3M melanoma): 5.23 µM | TGI (MALME-3M melanoma): 47.7 µM | GI50 (MCF7 breast): 0.949 µM | TGI (MCF7 breast): 21.5 µM | GI50 (MDA-MB-231 breast): 2.51 µM | TGI (MDA-MB-231 breast): 21.9 µM | GI50 (MDA-MB-435): 0.976 µM | TGI (MDA-MB-435): 4.19 µM | GI50 (MDA-MB-468 breast): 0.442 µM | TGI (MDA-MB-468 breast): 3.91 µM | GI50 (MOLT-4 leukemia): 3.66 µM | TGI (MOLT-4 leukemia): > 100 µM | GI50 (NCI-H226 lung): 3.92 µM | TGI (NCI-H226 lung): 21.1 µM | GI50 (NCI-H23 lung): 3.67 µM | TGI (NCI-H23 lung): 21.4 µM | GI50 (NCI-H460 lung): 3.08 µM | TGI (NCI-H460 lung): 12.2 µM | GI50 (NCI-H522 lung): 1.88 µM | TGI (NCI-H522 lung): 5.97 µM | GI50 (NCI/ADR-RES ovarian): 1.99 µM | TGI (NCI/ADR-RES ovarian): 4.89 µM | GI50 (OVCAR-3 ovarian): 3.19 µM | TGI (OVCAR-3 ovarian): 22.3 µM | GI50 (OVCAR-4 ovarian): 15 µM | TGI (OVCAR-4 ovarian): > 100 µM | GI50 (OVCAR-5 ovarian): 4.19 µM | TGI (OVCAR-5 ovarian): 67.1 µM | GI50 (OVCAR-8 ovarian): 3.55 µM | TGI (OVCAR-8 ovarian): 30.1 µM | GI50 (PC-3 prostate): 4.14 µM | TGI (PC-3 prostate): > 100 µM | GI50 (RPMI-8226 leukemia): 2.75 µM | TGI (RPMI-8226 leukemia): > 100 µM | GI50 (RXF 393 renal): 3.17 µM | TGI (RXF 393 renal): 17.1 µM | GI50 (SF-268 CNS): 6.46 µM | TGI (SF-268 CNS): > 100 µM | GI50 (SF-295 CNS): 3.01 µM | TGI (SF-295 CNS): 16.3 µM | GI50 (SF-539 CNS): 2.08 µM | TGI (SF-539 CNS): 5.47 µM | GI50 (SK-MEL-2 melanoma): 4.21 µM | TGI (SK-MEL-2 melanoma): > 100 µM | GI50 (SK-MEL-28 melanoma): 6.5 µM | TGI (SK-MEL-28 melanoma): > 100 µM | GI50 (SK-MEL-5 melanoma): 3.83 µM | TGI (SK-MEL-5 melanoma): 16.4 µM | GI50 (SK-OV-3 ovarian): 6.05 µM | TGI (SK-OV-3 ovarian): > 100 µM | GI50 (SN12C renal): 3.62 µM | TGI (SN12C renal): 34.4 µM | GI50 (SNB-19 CNS): 3.78 µM | TGI (SNB-19 CNS): 65 µM | GI50 (SNB-75 CNS): 1.81 µM | TGI (SNB-75 CNS): 9.27 µM | GI50 (SR leukemia): 13.2 µM | TGI (SR leukemia): > 100 µM | GI50 (SW-620 colon): 4.05 µM | TGI (SW-620 colon): > 100 µM | GI50 (T-47D breast): > 100 µM | TGI (T-47D breast): > 100 µM | GI50 (TK-10 renal): 18.4 µM | TGI (TK-10 renal): > 100 µM | GI50 (U251 CNS): 3.91 µM | TGI (U251 CNS): > 100 µM | GI50 (UACC-257 melanoma): 14.7 µM | TGI (UACC-257 melanoma): > 100 µM | GI50 (UACC-62 melanoma): 2.68 µM | TGI (UACC-62 melanoma): 33.5 µM | GI50 (UO-31 renal): 4.11 µM | TGI (UO-31 renal): > 100 µM
